Test results: article PMC3894963, “Expression and Functional Characterization of Membrane-Integrated Mammalian Corticotropin Releasing Factor Receptors 1 and 2 in Escherichia coli” (PLoS ONE, 2014)
pKi: −log10 of the molar value. Entries after “also recorded” stand apart in the source; their conditions may differ. Ends that are not written are not given here.

Assays:
hCRFR1α [1] = molecular target: T1, hCRFR1α (Homo sapiens, UniProt P34998); assay: Competitive displacement of labeled PD-sauvagine, hCRFR1α in E. coli membranes; assay type: binding; details: E. coli membranes (Figure 14)
T1 construct: The cDNAs encoding full-length mature forms of hCRFR1α and mCRFR2β were introduced into pET-26b plasmid; made in house; host or cells: E. coli (membrane fraction)
T1 sequence (P34998 24-415): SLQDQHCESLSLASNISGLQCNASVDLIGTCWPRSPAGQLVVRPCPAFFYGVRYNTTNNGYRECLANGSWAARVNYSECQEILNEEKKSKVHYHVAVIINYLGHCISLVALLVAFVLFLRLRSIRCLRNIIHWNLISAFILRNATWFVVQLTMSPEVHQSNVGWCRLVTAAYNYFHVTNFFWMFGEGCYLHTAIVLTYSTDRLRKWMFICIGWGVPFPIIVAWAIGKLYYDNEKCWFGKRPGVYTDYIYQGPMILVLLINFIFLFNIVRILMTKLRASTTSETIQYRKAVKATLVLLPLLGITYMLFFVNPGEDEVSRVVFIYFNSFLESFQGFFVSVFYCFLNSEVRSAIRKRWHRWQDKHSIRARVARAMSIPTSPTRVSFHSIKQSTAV
Method: Each assay included at least triplicate wells for each concentration, and the assays were repeated at least twice (except where indicated).
(§1) The saturation and competitive binding experiments are analyzed by non-linear regression with the GraphPad Prism program (www.graphpad.com) assuming binding to a single site. Specifically, for saturation binding experiments, binding is determined as a function of increasing concentrations of radioligand. The equation used is y = {(Bmax)^.[radioligand]}/{Kd+[radioligand]}, where y = the specific binding (i.e., total binding-non-specific binding). Competitive binding experiments use a constant concentration of radioligand together with increasing concentrations of competitor. […] Because [radioligand] is <Kd, the Ki = EC50. For multiple determinations, Log (EC50) values were averaged to calculate the values in Table 1. […] In Table 1, the inhibition constant (Ki) values are shown together with the standard error and ranges, calculated assuming log normal distribution.

CRFR1 = tested on: CRFR1; set-up: method as in PMID 9415408; details: CRFR1 in mammalian cells; cited from earlier work
mCRFR2β [2] = molecular target: T2, mCRFR2β (Mus musculus, UniProt Q60748); assay: Competitive displacement of labeled astressin, mCRFR2β in E. coli membranes; assay type: binding; details: for Displacement of bound labeled astressin: mCRFR2β, E. coli membranes (Figure 11B)
T2 construct: mCRFR2β(Val25-C-term) - PhoA; made in house; host or cells: E. coli (membrane fraction)
Method: as §1, with “The incubation was performed at room temp for 90-120 min, at which time the plates were aspirated and each well was washed with 2×100 μl assay buffer, dried and counted in a γ-counter. Each assay included at least triplicate wells for each concentration, and the assays were repeated at least twice (except where indicated). […] The saturation” for “The saturation”

hCRFR1α [3] = molecular target: T1, hCRFR1α; assay: Binding of labeled sauvagine, hCRFR1α in E. coli; details: hCRFR1α expressed in E. coli, [^125I-Tyr^0,Glu^1,Nle^17]-sauvagine
Method: (§2) The incubation was performed at room temp for 90–120 min, at which time the plates were aspirated and each well was washed with 2×100 µl assay buffer, dried and counted in a γ-counter. Each assay included at least triplicate wells for each concentration, and the assays were repeated at least twice (except where indicated).

mCRFR2β [4] = molecular target: T2, mCRFR2β; assay: Binding of labeled sauvagine, mCRFR2β in E. coli; details: mCRFR2β expressed in E. coli, [^125I-Tyr^0,Glu^1,Nle^17]-sauvagine
Method: as §2

hCRFR1α [5] = molecular target: T1, hCRFR1α; assay: Saturation binding of labeled PD-sauvagine, hCRFR1α in E. coli membranes
Method: as §1, with “The incubation was performed at room temp for 90-120 min, at which time the plates were aspirated and each well was washed with 2×100 μl assay buffer, dried and counted in a γ-counter. Each assay included at least triplicate wells for each concentration, and the assays were repeated at least twice (except where indicated). […] The saturation” for “The saturation”

mCRFR2β [6] = molecular target: T2, mCRFR2β; assay: Saturation binding of labeled PD-sauvagine, mCRFR2β in E. coli membranes
Method: as §1, with “The incubation was performed at room temp for 90-120 min, at which time the plates were aspirated and each well was washed with 2×100 μl assay buffer, dried and counted in a γ-counter. Each assay included at least triplicate wells for each concentration, and the assays were repeated at least twice (except where indicated). […] The saturation” for “The saturation”

hCRFR1α [7] = molecular target: T1, hCRFR1α; assay: Binding of labeled Ucn1, hCRFR1α in E. coli; details: data not shown
mCRFR2β [8] = molecular target: T2, mCRFR2β; assay: Binding of labeled Ucn1, mCRFR2β in E. coli; details: data not shown
CRFR1 / CRFR2 = details: introduction; cited from earlier work
Excerpt: In most vertebrates there are two highly conserved tissue-specifically expressed CRFRs, designated type 1 [15] and type 2 [16], encoded by different genes and approximately 70% identical to each other at the amino acid level. CRFR1 is relatively more abundant in the nervous system, including the pituitary, while CRFR2 is particularly expressed in the heart, skeletal muscle, and gastrointestinal tract. […] The main type 1 isoform in human, ra ...

hCRFR1α [9] = molecular target: T1, hCRFR1α; assay: Competitive displacement of labeled astressin, hCRFR1α in E. coli membranes; assay type: binding; details: E. coli membranes (Figure 11A)
Method: as §1, with “The incubation was performed at room temp for 90-120 min, at which time the plates were aspirated and each well was washed with 2×100 μl assay buffer, dried and counted in a γ-counter. Each assay included at least triplicate wells for each concentration, and the assays were repeated at least twice (except where indicated). […] The saturation” for “The saturation”

ECD-1s of the CRFRs = details: cited from earlier work
Excerpt: Further, the CRFRs' coupling to G-proteins in mammalian cells is important for the high affinity binding of agonists, such as sauvagine and CRF, ...

[10] = listed as labeled agonist sauvagine
[11] = labeled PD-sauvagine versus labeled astressin, printed with ref [55]
[12] = nanomolar concentrations, Kd not determined (Figure S3)

T2 sequence (Q60748 25-431 isoform Q60748-2): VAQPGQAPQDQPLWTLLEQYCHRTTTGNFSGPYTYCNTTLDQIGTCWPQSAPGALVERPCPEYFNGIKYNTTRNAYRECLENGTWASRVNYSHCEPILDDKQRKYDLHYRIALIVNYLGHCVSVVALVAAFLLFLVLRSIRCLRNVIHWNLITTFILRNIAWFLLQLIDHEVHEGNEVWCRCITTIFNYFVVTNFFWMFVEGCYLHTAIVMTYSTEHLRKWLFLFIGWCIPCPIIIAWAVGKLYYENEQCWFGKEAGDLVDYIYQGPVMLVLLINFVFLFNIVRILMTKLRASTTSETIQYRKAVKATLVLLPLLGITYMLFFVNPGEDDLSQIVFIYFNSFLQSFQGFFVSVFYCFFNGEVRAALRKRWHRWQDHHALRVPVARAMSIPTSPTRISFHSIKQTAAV

CCCCN(CC)c1nc(C)nc2c1c(C)c(C)n2-c1c(C)cc(C)cc1C [antalarmin]
Displacement of bound labeled PD-sauvagine (hCRFR1α [1]): displaces labeled PD-sauvagine bound to hCRFR1α (Figure 14) in a dose dependent manner; also recorded: competitively displaces labeled PD-sauvagine bound to a small percentage of the hCRFR1α expressed in E. coli membranes | Binding site (CRFR1): binds to a site defined by residues in transmembrane domains 3 and 5 of CRFR1

CC[C@H](C)[C@H](NC(=O)[C@H](CO)NC(=O)[C@H](CC(C)C)NC(=O)[C@@H]1CCCN1C(=O)[C@@H]1CCCN1C(=O)[C@H](CC(=O)O)NC(=O)[C@@H](N)CC(=O)O)C(=O)N[C@@H](CC(=O)O)C(=O)N[C@@H](CC(C)C)C(=O)N[C@H](C(=O)N[C@@H](Cc1ccccc1)C(=O)N[C@@H](Cc1c[nH]cn1)C(=O)N[C@@H](CC(C)C)C(=O)N[C@@H](CC(C)C)C(=O)N[C@@H](CCCNC(=N)N)C(=O)N[C@H](C(=O)N[C@@H](CC(C)C)C(=O)N[C@@H](CC(C)C)C(=O)N[C@@H](CCC(=O)O)C(=O)N[C@@H](CC(C)C)C(=O)N[C@@H](C)C(=O)N[C@@H](CCCNC(=N)N)C(=O)N[C@H](C(=O)N[C@@H](CCC(N)=O)C(=O)N[C@@H](CO)C(=O)N[C@@H](CCC(N)=O)C(=O)N[C@@H](CCCNC(=N)N)C(=O)N[C@@H](CCC(=O)O)C(=O)N[C@@H](CCCNC(=N)N)C(=O)N[C@@H](C)C(=O)N[C@@H](CCC(=O)O)C(=O)N[C@@H](CCC(N)=O)C(=O)N[C@@H](CC(N)=O)C(=O)N[C@@H](CCCNC(=N)N)C(=O)N[C@H](C(=O)N[C@H](C(=O)N[C@@H](Cc1ccccc1)C(=O)N[C@@H](CC(=O)O)C(=O)N[C@@H](CO)C(=O)N[C@H](C(N)=O)C(C)C)[C@@H](C)CC)[C@@H](C)CC)[C@@H](C)O)[C@@H](C)O)[C@@H](C)O [rUcn1]
pKi (mCRFR2β [2]; read-out: Inhibitory binding constant (Ki)): 7.94

[^125I-Tyr^0,Glu^1,Nle^17]-sauvagine [labeled sauvagine]
Binding of labeled sauvagine (hCRFR1α [3]): fail to bind labeled sauvagine | Binding of labeled sauvagine (hCRFR1α [3]; [10]): do not bind the labeled agonist sauvagine | Binding of labeled sauvagine (mCRFR2β [4]): fail to bind labeled sauvagine | Binding of labeled sauvagine (mCRFR2β [4]; [10]): do not bind the labeled agonist sauvagine

[^125I-Tyr^0,Glu^1]PD-sauvagine [labeled PD-sauvagine]
Binding of labeled PD-sauvagine (hCRFR1α [5]): do bind the other labeled agonist, PD-sauvagine | Number of sites detected (hCRFR1α [5]; [11]): less than that detected by labeled astressin | Saturation of binding (hCRFR1α [5]; [12]): at nanomolar concentrations the binding did not saturate | Binding of labeled PD-sauvagine (mCRFR2β [6]): do bind the other labeled agonist, PD-sauvagine | Number of sites detected (mCRFR2β [6]; [11]): less than that detected by labeled astressin | Saturation of binding (mCRFR2β [6]; [12]): at nanomolar concentrations the binding did not saturate

labeled Ucn1: labeled Ucn1, binding data not shown (DNPSLSIDLTFHLLRTLLELARTQSQRERAEQNRIIFDSV; ends and bridges not checked; also: labeled (label not given here); UniProt P55089 83-122, looked up)
Binding of labeled Ucn1 (hCRFR1α [7]): observed binding of labeled Ucn1 to the receptors | Binding of labeled Ucn1 (mCRFR2β [8]): observed binding of labeled Ucn1 to the receptors

mUcn3: CRFR2-selective ligand, mouse (FTLSLDVPTNIMNILFNIDKAKNLRAKAAANAQLMAQI; ends and bridges not checked; UniProt Q924A4 123-160, looked up)
Displacement of bound labeled astressin (mCRFR2β [2]): does not compete for binding to mCRFR2β | Relative affinity for CRFR1 and CRFR2 (CRFR1 / CRFR2): selective for CRFR2

r/hCRF: CRF is a 41-amino acid (aa) peptide synthesized in the hypothalamus
Relative affinity for CRFR1 and CRFR2 (CRFR1 / CRFR2): tenfold higher affinity for CRFR1 than for CRFR2

sauvagine
Displacement of bound labeled astressin (hCRFR1α [9]): does not displace labeled astressin bound to either receptor | Displacement of bound labeled astressin (mCRFR2β [2]): does not displace labeled astressin bound to either receptor | Binding to ECD-1s (ECD-1s of the CRFRs): does not bind to the isolated ECD-1s
